Measured values from patent publication US20260275249A1, “Bleach Catalyst With Improved Performance, Granule Comprising The Bleach Catalyst, And Composition Comprising Said Catalyst Or Said Granule” (Reckitt Benckiser Vanish B.V., priority 2023, published 2026).
Entries after “also recorded” stand apart in the source; their conditions may differ.

Columns and labels:
[1] = Amount of solvent system needed to dissolve 0.2 g of bleach catalyst (effect of surfactant on solubility); assay type: physicochemical
Protocol: The amount of solvent needed to dilute 0.2 g of bleach catalyst 1 was determined. Subsequently solvent systems containing a solvent and 0.06 wt. % of surfactant, based on the total weight of the solvent system, were prepared, and the amount of solvent system needed to dilute 0.2 g of bleach catalyst 1 was determined. It will be recognised that for the preparation of a supported catalyst on a carrier it is necessary to dilute the bleach catalyst in a solvent system.
The results of the amount of solvent system without surfactant and solvent system with surfactant needed to dissolve 0.2 g of bleach catalyst 1 are shown in Table 5.

[2] = Stability of bleach catalysts: UV-vis absorbance of solutions at pH 11; assay type: physicochemical
Protocol: The stability of bleach catalysts having the structures shown in Table 2 was determined by preparing solutions of these compounds and measuring their UV-vis absorbance.
A solution of each compound was prepared by dissolving each compound in a mixture of 50 wt. % water and 50 wt. % acetone. The concentration of each solution was 0.28 mM.
The pH of each solution was set to 11 by adding a diluted solution of sodium hydroxide.
The UV-vis absorption of each solution was measured just after preparing the samples (t=0), then at 2 h and 48 h using a UV-Vis Evolution 220 FC-1135 spectrophotometer.

[3] = t = 0, 0.28 mM in 50 wt. % water / 50 wt. % acetone
[4] = t = 48 h, 0.28 mM in 50 wt. % water / 50 wt. % acetone

Row | Compound | Amount of solvent system needed to dissolve 0.2 g of bleach catalyst ([1]; Acetone) [g] | Amount of solvent system needed to dissolve 0.2 g of bleach catalyst ([1]; Acetone with 0.06 wt. % surfactant (ROKAnol L7A)) [g] | Amount of solvent system needed to dissolve 0.2 g of bleach catalyst ([1]; Ethyl acetate) [g] | Amount of solvent system needed to dissolve 0.2 g of bleach catalyst ([1]; Ethyl acetate with 0.06 wt. % surfactant (ROKAnol L7A)) [g] | Amount of solvent system needed to dissolve 0.2 g of bleach catalyst ([1]; Tetrahydrofuran) [g] | Amount of solvent system needed to dissolve 0.2 g of bleach catalyst ([1]; Tetrahydrofuran with 0.06 wt. % surfactant (ROKAnol L7A)) [g] | Absorption at 445 nm [2, 3] | Appearance [2, 3] | Absorption at 445 nm [2, 4] | Appearance [2, 4]
1 | O=S1(=O)N=C(c2cccnc2)c2ccccc21 [Bleach catalyst 2, 3-(pyridine-3-yl)-1,2-benzisothiazole-1,1-dioxide] | – | – | – | – | – | – | <0.05 | Transparent | <0.05 | Transparent
2 | CC(C)(C)C1=NS(=O)(=O)c2ccccc21 [Bleach catalyst C, 3-tert-butyl-1,2-benzisothiazole-1,1-dioxide] | – | – | – | – | – | – | <0.05 | Transparent | <0.05 | Transparent
3 | CC1=NS(=O)(=O)c2ccccc21 [Bleach catalyst A, 3-methyl-1,2-benzisothiazole-1,1-dioxide] | – | – | – | – | – | – | <0.05 | Transparent | 0.37 | coloured/yellow; also recorded: Yellowing

Now from value to compound:

Row | Amount of solvent system needed to dissolve 0.2 g of bleach catalyst ([1]; Acetone) [g] | Amount of solvent system needed to dissolve 0.2 g of bleach catalyst ([1]; Acetone with 0.06 wt. % surfactant (ROKAnol L7A)) [g] | Amount of solvent system needed to dissolve 0.2 g of bleach catalyst ([1]; Ethyl acetate) [g] | Amount of solvent system needed to dissolve 0.2 g of bleach catalyst ([1]; Ethyl acetate with 0.06 wt. % surfactant (ROKAnol L7A)) [g] | Amount of solvent system needed to dissolve 0.2 g of bleach catalyst ([1]; Tetrahydrofuran) [g] | Amount of solvent system needed to dissolve 0.2 g of bleach catalyst ([1]; Tetrahydrofuran with 0.06 wt. % surfactant (ROKAnol L7A)) [g] | Absorption at 445 nm [2, 3] | Appearance [2, 3] | Absorption at 445 nm [2, 4] | Appearance [2, 4] | Compound
4 | 5 | 2.5 | 13 | 11 | 3.5 | 2.75 | <0.05 | Transparent | <0.05 | Transparent | O=S1(=O)N=C(c2ccccn2)c2ccccc21 [Bleach catalyst 1, 3-(33yridine-2-yl)-1,2-benzisothiazole-1,1-dioxide]
5 | – | – | – | – | – | – | <0.05 | Transparent | <0.05 | Transparent | O=S1(=O)N=C(c2ccccc2)c2ccccc21 [Bleach catalyst B, 3-phenyl-1,2-benzisothiazole-1,1-dioxide]
